The values below come from patent US5879896A, “Method of screening for inhibitors of human thyrotropin releasing hormone (TRH) receptor” (Takeda Chemical Industries, Ltd., priority 1993, dated 1999).

For test [1], the target named is T1, human TRH receptor (Homo sapiens, UniProt P34981).
T1 sequence (P34981 1-398): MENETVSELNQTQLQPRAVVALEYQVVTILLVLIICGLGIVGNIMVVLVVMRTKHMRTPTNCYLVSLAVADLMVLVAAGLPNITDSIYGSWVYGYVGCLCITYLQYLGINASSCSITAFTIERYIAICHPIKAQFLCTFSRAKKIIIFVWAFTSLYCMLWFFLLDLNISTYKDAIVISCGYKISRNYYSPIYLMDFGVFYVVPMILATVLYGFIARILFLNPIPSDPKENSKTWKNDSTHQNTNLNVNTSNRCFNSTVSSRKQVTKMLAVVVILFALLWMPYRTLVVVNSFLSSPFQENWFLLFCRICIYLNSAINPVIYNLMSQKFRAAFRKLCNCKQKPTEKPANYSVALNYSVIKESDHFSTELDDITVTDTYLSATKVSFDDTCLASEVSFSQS
In words: [3H]TRH binding to Sf9 cells infected with recombinant baculovirus carrying human TRH receptor genes (Example 3). On the set-up: translation frame (open reading frame) of the human TRH receptor was constructed on pUC118; expressed in transfected cells. The conditions noted are these: 1000-fold unlabeled TRH (10 μM) (FIG. 8).

Test [2] addresses T1, human TRH receptor. In words: c-fos promoter / secretive alkaline phosphatase assay in human TRH receptor expression CHO cells (Example 9). It is filed as cell-based. On the set-up: translation frame (open reading frame) of the human TRH receptor was constructed on pUC118; expressed in transfected cells; host or cells: CHO dhfr- cells (plasmid pAKKO1.11 with the human TRH receptor open reading frame). The conditions noted are these: c-fos promoter activation, overnight (FIG. 14).
Protocol: An insertion of a secretive alkaline phosphatase gene linked to a c-fos promoter into a TRH receptor expression cell was conducted as follows:
5×10^5 TRH receptor expression CHO cells were inoculated onto a 10 cm plate and they were cultivated for 24 hours in Ham's F12 medium (Lifetech Oriental) equipped with 10% fetal bovine serum. 3 μg of a vector (pSVP4-Ap-neo, FIG. 13) which was introduced by a secretive alkaline phosphatase gene downstream from the c-fos promoter was introduced into the CHO cells using a gene introducing kit (Cell Phect, Pharmacia) by calcium phosphate method. The cells introduced by the vector were cloned in the above-described medium equipped with 500 μg/ml of G418. 39 clones were isolated and clones which have high TRH responsiveness were further selected.
Cell stimulating activity through a TRH receptor using activation of c-fos promoter as an indicator was assayed as follows:
Each 5×10^4 of the above-described transformants were inoculated onto 96 hole plates for tissue cultivation (Corning) and they were cultivated for a night. […] The plate was assayed by a fluorescence plate reader (Fluoroskan II, Titertek) at 365 nm of excitation and 450 nm of luminescence.

Test [3] concerns the target T1, human TRH receptor. The test is described as follows: Antagonism of [3H]TRH binding in CHO dhfr- cells transformed with human TRH receptor DNA (Examples 5 and 6). As to conditions: 1 h. Also on record: translation frame (open reading frame) of the human TRH receptor was constructed on pUC118; expressed in transfected cells; host or cells: CHO dhfr- cells (plasmid pAKKO1.11 with the human TRH receptor open reading frame).

The subject of test [4] is CHO dhfr- cells. The test is described as follows: Release of [3H]-labeled arachidonic acid from control CHO dhfr- cells (Example 7). It is filed as cell-based, Chinese hamster. As to conditions: TRH added (FIG. 10). As for the experimental part:
(§1) CHO cells into which the human TRH receptor DNAs obtained in Example 4 were subcultured at a density of 1.0×10^6 cells/well to a 12-well tissue culture plate (Sumitomo Bakelite) and cultivated for 24 hours. The medium was removed and replaced by a fresh medium. Then, [^3 H] […] arachidonic acid (du Pont/NEN, specific activity: 60-100 Ci/mmol) was added to give a concentration of 0.5 μCi/well. After addition of arachidonic acid, the cells were further cultivated for 24 hours, and washed three times with Hanks' balanced salt solution (HBSS) supplemented with 0.05% BSA. Thereafter, 495 μl/well of HBSS supplemented with 0.05% BSA was added thereto. Then, 5 μl of a test solution was added thereto, and incubation was conducted for 30 minutes at room temperature to release arachidonic acid in the medium. HBSS (400 μl) of the supernatant was recovered, and mixed with liquid scintillator A (Wako Pure Chemical Industries). The amount of released [^3 H]-labeled arachidonic acid was measured by use of a liquid scintillation counter (Beckmann).

The subject of another test is pituitary glands. The conditions noted are these: literature; cited from earlier work.
The target in test [5] is T1, human TRH receptor. In words: Release of [3H]-labeled arachidonic acid from CHO cells into which human TRH receptor DNAs were introduced (Example 7). It is filed as cell-based. On the set-up: translation frame (open reading frame) of the human TRH receptor was constructed on pUC118; expressed in transfected cells; host or cells: CHO dhfr- cells (plasmid pAKKO1.11 with the human TRH receptor open reading frame). As to conditions: TRH concentration dependence, compared with control (HBSS alone) (FIG. 10). As for the experimental part:
as §1
Further, in the receptor binding experiment of Example 6, the releasing activity of arachidonic acid was measured using 4 kinds of compounds strongly that can antagonize the binding of [^3 H]

For test [6], the system named is CHO dhfr- cells. The test is described as follows: [3H]TRH binding to CHO dhfr- cell line into which no human TRH receptor DNA was introduced (Example 4). Also on record: species or system Chinese hamster. The conditions noted are these: no human TRH receptor DNA introduced (FIG. 9). On the procedure: This plasmid was cleaved with SalI and ClaI. The plasmid obtained in Example 3 in which the translation frame (open reading frame) of the human TRH receptor was constructed on pUC118 was cleaved with HindIII, and repaired with a Klenow fragment, followed by addition of an SalI linker. The resulting fragment was further cleaved with SmaI, and a fragment containing the translation frame (open reading frame) of the human TRH receptor and a ClaI linker were added thereto. This was cleaved with SalI and ClaI, and thereafter, the plasmid DNA previously cleaved with SalI and ClaI was bound thereto to complete an expression plasmid. This plasmid DNA was purified by cesium chloride equilibrium density gradient centrifugation, and partially introduced into the CHO dhfr^- cell line with a gene introduction kit (CellPhect, Pharmacia) by the calcium phosphate precipitation method. The original CHO dhfr^- cell line is impossible to grow in a medium not containing a nucleoside and a nucleotide, because of lack of dhfr phenotype. […] The cells were dissolved in 500 μl of 1% SDS and 0.2N NaOH, and the radioactivity contained therein was measured by use of liquid scintillator A. In order to know the non-specific binding, a group was also prepared to which non-labeled TRH was added to a final concentration of 10 μM in addition to [^3 H] […]

Setting [7] is: read-out: Antagonistic Rate (%) at Each Concentration (-log M).
The mark [8] stands for this setting: read-out: Antagonistic Rate (%) at Each Concentration (-log M) (*1).

Read-outs that look alike come from different tables or passages of the source.

As to `NC(=O)[C@@H]1CCCN1C(=O)[C@H](Cc1cnc[nH]1)NC(=O)[C@@H]1CCC(=O)N1` [TRH, pGlu His Pro NH2], the “Antagonism of [3H]TRH binding by unlabeled TRH, in words” value on human TRH receptor [1] was “antagonized the binding”. The “Alkaline phosphatase secretion into supernatant, in words” value at human TRH receptor [2] is given as “alkaline phosphatase secrets into the supernatant depending on the concentration of TRH added”. Also, at human TRH receptor [3] (setting [7]), the inhibition at 1 pM was 0%, the inhibition at 10 pM turned out to be 0.7%, the inhibition at 0.0001 µM worked out at 0.3% and the inhibition at 0.001 µM is 7.2%. Also, on human TRH receptor [3] (setting [7]), the inhibition at 0.01 µM was determined as 52%, the inhibition at 0.1 µM came out at 90.7%, the inhibition at 1 µM amounted to 98.7% and the inhibition at 10 µM stood at 99.7%. Moreover, at human TRH receptor [3] (setting [8]), the inhibition at 0.0001 µM is -0.7%, the inhibition at 0.001 µM stood at 4.2%, the inhibition at 0.01 µM came out at 39.8% and the inhibition at 0.1 µM was determined as 83.9%. Moreover, at human TRH receptor [3] (setting [8]), the inhibition at 1 µM was found to be 97.8% and the inhibition at 10 µM turned out to be 99.7%. For the same molecule, the “Amount of arachidonic acid released, in words” value in the test on CHO dhfr- cells [4] is listed as “no change was observed”. The “Secretion of pituitary hormones, in words” value in the test on pituitary glands was “promoting secretion of thyroid stimulating hormone and prolactin of the pituitary glands”. Further, the “Amount of arachidonic acid released, in words” value on human TRH receptor [5] is listed as “increase the amount of arachidonic acid released depending upon the concentration”.

On to “[L-proline-2,3,4,5-^3 H(N)]-(Pyro)Glu-His-Pro-NH2 [[^3 H] TRH]”, for which, in the test with CHO dhfr- cells [6], the “Specific binding, in words” value is “no specific binding was detected at all”.
